Results on one molecule are retold here after patent US7820707B2, “Heterocyclic derivatives” (N.V. Organon, priority 2006, dated 2010).

Structures are written as SMILES.

The experiment addresses T1, AMPA (GluR1) receptor (Homo sapiens, UniProt P42261).
T1 construct: expressed in transfected cells; host or cells: HEK cells (HEK.GluR1(i), kept under hygromycin selection)
The experiment is described as follows: Ca2+ influx assay (FLEXstation, Fluo-3) for positive modulation of the AMPA (GluR1) receptor in HEK.GluR1(i) cells. As to conditions: glutamate +/- test compound, Ca2+ response with fluo3-AM. Type of experiment: cell-based. The text has this: The compounds in this invention may be tested using a biological assay which measures Ca^2+ influx mediated through positive modulation of the AMPA (GluR1) receptor using standard techniques in the art such as, but not limited to, a FLEXstation (manufactured by Molecular Devices, Sunnyvale, Calif.). An optical readout using fluorescent probes is employed to measure ion channel dependent changes in intracellular ion concentration or membrane potential. The assay utilises the Ca^2+ conductance of functional homomeric GluR1(i) AMPA receptors to generate glutamate-dependent Ca^2+ responses. Influx of Ca^2+ through the ion channel is measured indirectly through an increase in intracellular Ca^2+ levels using the calcium sensitive dye such as, but not limited to, Fluo-3 (Molecular Devices, Sunnyvale, Calif.) in FLEXstation. A positive AMPA receptor modulator, in the presence of glutamate, will result in an influx of Ca^2+ through the ion channel which can be measured indirectly through an increase in intracellular Ca^2+ levels using the calcium sensitive dye Fluo-3 in FLEXstation.
HEK.GluR1(i) cells were maintained in DMEM supplemented with 10% fetaclone II, 1% non-essential amino acids and 150 μg/mL hygromycin, at 37° C./5% CO2. […]

T1 sequence (P42261 19-906 isoform P42261-2 limits assumed, species assumed): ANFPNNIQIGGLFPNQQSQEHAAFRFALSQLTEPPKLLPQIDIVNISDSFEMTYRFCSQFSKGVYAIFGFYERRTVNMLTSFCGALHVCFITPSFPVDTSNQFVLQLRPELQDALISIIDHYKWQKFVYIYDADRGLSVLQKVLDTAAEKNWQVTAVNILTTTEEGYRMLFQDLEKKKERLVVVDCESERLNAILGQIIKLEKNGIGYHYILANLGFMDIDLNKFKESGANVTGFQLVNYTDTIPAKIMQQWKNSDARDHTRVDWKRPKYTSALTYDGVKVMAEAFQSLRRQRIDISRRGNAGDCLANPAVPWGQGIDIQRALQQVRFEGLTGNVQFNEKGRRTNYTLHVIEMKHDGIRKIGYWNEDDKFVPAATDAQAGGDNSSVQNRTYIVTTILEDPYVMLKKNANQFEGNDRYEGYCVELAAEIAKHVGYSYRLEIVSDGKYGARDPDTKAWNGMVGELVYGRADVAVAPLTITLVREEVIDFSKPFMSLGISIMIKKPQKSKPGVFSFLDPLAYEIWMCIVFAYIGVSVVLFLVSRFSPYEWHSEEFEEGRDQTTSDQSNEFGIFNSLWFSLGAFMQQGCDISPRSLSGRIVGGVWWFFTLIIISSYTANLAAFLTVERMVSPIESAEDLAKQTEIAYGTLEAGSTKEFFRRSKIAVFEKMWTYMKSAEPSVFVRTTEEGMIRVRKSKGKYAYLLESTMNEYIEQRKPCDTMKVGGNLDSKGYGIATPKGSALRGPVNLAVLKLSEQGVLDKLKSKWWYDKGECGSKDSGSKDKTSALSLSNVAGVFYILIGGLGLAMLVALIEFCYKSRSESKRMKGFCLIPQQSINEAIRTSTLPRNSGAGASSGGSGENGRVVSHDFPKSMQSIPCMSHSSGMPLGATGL

`CC(O)c1cn(CC(=O)Nc2sc3c(c2C(N)=O)CCCC3)nc1C(F)(F)F` (stereo not shown) [Example 67, 2-(2-(4-(1-hydroxyethyl)-3-(trifluoromethyl)-1H-pyrazol-1-yl)acetamido)-4,5,6,7-tetrahydrobenzo[b]thiophene-3-carboxamide]: it took 2.2 µM to reach a half-maximal effect (EC50).

One may read the EC50 as the concentration giving half of the maximal effect.
